# Data published in US20260207585A1, “METHODS AND COMPOSITIONS FOR THE TREATMENT OF PARKINSON'S DISEASE, HUNTINGTON'S DISEASE, AMYOTROPHIC LATERAL SCLEROSIS, AND LEARNING DISORDERS” (Cedars-Sinai Medical Center, priority 2022, published 2026).
# Where two headings read alike, the source gives them in different places.
# Key:
# Assay type in all cases: biochemical
# DNMT1 = DNMT1 (Homo sapiens, UniProt P26358); assay: Methyltransferase inhibition panel: DNMT1
# Method: (§1) The ability of ETP69 to inhibit methyltransferases was tested.
# MLL1 Complex = MLL1 Complex (Homo sapiens, UniProt Q03164); assay: Methyltransferase inhibition panel: MLL1 Complex
# MLL1 Complex, sequence (Q03164 3745-3969): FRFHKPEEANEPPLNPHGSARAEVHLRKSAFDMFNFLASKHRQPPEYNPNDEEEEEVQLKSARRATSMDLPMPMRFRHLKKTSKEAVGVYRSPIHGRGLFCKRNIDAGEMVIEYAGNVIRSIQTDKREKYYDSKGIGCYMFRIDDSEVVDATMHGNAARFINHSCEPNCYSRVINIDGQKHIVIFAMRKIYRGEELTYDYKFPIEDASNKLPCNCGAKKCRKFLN
# MLL1 Complex, sequence (Q9UBL3 96-628, further chain): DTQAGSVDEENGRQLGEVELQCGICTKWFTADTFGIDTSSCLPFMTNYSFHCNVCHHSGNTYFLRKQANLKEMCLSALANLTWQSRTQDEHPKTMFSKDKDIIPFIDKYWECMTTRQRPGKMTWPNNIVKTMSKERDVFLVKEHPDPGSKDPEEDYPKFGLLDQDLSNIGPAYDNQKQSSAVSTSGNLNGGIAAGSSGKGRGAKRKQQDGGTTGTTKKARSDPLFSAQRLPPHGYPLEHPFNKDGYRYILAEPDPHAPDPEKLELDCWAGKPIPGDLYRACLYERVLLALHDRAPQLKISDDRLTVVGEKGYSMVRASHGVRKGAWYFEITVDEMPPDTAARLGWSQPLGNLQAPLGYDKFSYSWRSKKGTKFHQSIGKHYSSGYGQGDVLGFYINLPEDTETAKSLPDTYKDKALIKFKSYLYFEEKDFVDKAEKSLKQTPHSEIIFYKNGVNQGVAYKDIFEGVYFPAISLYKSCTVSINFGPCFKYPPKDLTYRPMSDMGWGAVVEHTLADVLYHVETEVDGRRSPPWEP
# MLL1 Complex, sequence (Q9C005 whole entry, further chain): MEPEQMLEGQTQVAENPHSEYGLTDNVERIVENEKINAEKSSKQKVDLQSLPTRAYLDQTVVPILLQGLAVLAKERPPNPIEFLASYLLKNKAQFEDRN
# MLL1 Complex, sequence (Q15291 whole entry, further chain): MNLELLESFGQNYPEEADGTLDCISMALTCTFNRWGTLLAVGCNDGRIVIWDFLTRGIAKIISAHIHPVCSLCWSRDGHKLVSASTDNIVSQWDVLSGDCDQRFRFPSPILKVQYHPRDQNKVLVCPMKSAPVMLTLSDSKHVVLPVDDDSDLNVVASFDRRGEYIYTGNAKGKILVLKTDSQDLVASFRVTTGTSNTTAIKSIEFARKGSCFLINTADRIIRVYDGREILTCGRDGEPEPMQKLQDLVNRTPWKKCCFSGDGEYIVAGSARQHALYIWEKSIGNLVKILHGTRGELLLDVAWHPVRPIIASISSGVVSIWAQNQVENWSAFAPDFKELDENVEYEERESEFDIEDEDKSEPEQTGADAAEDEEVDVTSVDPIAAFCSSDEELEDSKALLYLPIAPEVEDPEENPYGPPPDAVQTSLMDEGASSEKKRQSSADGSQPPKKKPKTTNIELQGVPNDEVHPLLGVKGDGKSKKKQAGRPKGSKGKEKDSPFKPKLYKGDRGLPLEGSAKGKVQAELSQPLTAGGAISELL
# Method: as §1
# NRMT1 = target: T1, NRMT1 (Homo sapiens, UniProt Q9BV86); assay: Methyltransferase inhibition panel: NRMT1
# T1 sequence (Q9BV86 1-223): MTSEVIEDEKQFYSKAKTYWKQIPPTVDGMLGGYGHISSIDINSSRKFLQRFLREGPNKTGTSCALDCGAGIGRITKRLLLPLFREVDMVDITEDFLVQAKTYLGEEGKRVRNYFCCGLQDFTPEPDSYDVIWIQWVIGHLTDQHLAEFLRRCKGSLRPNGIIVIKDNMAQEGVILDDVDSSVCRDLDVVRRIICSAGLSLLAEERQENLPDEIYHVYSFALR
# Method: as §1
# NSD2 = target: T2, NSD2 (Homo sapiens, UniProt O96028); assay: Methyltransferase inhibition panel: NSD2
# T2 sequence (O96028 1-1365): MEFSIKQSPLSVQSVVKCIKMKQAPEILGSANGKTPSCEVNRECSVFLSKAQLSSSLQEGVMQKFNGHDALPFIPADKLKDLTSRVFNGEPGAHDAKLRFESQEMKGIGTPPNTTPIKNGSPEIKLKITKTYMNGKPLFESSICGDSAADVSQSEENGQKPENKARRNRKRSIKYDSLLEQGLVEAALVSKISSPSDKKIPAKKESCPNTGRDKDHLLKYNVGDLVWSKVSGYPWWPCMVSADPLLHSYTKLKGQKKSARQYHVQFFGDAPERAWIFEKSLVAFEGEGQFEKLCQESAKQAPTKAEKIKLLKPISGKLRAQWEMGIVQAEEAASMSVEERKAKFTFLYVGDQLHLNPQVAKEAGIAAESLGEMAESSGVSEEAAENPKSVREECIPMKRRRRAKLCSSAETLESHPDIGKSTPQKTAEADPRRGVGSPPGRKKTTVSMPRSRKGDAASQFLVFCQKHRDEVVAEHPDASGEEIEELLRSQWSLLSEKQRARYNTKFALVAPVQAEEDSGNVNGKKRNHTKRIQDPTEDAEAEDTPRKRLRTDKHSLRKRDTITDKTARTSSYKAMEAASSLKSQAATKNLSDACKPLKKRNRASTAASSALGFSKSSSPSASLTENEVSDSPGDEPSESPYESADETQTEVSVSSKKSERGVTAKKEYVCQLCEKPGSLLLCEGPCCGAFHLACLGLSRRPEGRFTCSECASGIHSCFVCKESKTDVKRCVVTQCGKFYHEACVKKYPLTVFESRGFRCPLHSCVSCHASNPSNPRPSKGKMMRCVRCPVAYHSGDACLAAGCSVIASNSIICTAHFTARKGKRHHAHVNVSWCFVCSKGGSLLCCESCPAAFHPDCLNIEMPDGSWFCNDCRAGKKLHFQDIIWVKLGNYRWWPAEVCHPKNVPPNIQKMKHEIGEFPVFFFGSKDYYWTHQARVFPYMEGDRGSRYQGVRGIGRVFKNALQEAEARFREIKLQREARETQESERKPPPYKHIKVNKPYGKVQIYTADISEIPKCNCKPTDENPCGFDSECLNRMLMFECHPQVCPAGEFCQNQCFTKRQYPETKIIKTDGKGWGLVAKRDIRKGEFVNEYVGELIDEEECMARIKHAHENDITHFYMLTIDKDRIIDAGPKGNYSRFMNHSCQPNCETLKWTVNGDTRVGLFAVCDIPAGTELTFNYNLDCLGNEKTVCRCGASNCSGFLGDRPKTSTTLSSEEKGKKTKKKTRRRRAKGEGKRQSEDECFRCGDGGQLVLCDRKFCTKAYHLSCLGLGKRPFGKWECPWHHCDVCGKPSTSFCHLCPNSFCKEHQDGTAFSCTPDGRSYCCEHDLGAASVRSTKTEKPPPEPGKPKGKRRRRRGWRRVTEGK
# Method: as §1
# SETDB1 = SETDB1 (Homo sapiens, UniProt Q15047); assay: Methyltransferase inhibition panel: SETDB1
# Method: as §1
# [1] = read-out: Enzyme % Activity (relative to DMSO controls) Data 1
# [2] = read-out: Enzyme % Activity (relative to DMSO controls) Data 2
# [3] = NT1721 20 μM, substrate Nucleosomes 0.05 mg/mL
# DNMT1, sequence (P26358 whole entry): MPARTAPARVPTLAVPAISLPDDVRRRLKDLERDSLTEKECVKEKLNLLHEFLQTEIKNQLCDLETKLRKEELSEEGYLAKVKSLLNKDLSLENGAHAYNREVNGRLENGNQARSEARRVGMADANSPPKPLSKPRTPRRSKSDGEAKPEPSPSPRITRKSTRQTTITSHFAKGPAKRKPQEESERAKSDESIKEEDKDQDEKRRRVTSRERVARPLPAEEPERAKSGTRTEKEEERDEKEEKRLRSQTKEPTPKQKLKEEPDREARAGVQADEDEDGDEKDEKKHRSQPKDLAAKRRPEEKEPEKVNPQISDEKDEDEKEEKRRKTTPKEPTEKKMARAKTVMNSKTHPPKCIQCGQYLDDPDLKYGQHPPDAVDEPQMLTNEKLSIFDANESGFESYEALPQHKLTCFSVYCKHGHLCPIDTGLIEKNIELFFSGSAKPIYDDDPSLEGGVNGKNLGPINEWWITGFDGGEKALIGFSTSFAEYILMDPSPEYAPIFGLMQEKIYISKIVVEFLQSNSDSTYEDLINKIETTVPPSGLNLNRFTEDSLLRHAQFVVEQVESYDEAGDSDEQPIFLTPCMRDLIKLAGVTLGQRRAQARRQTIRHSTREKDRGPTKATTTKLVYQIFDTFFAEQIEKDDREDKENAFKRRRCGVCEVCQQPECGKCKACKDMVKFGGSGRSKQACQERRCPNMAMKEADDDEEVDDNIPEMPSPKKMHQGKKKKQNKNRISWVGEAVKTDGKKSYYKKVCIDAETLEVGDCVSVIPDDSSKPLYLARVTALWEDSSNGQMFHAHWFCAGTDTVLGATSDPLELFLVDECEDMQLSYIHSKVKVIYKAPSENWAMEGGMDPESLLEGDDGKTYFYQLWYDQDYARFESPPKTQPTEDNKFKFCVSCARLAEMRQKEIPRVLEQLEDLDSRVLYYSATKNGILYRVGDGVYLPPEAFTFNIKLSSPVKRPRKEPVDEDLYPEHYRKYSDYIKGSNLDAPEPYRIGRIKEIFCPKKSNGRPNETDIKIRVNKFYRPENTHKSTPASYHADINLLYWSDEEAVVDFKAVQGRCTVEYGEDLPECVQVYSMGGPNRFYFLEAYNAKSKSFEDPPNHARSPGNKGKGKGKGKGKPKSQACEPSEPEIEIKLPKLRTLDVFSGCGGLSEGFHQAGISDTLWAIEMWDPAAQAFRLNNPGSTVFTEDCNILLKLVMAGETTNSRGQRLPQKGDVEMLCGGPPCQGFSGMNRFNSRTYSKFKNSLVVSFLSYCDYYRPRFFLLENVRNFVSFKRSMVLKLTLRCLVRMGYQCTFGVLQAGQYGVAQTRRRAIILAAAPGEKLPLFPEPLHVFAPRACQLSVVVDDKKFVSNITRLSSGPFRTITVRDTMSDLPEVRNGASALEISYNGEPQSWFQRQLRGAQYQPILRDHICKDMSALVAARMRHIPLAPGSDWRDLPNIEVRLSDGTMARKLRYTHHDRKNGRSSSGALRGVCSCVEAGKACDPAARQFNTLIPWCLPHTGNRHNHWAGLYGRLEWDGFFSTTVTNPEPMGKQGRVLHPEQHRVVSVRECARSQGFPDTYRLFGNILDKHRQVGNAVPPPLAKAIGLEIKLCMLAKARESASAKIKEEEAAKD
smiles,measurement,setting,value
"CN1C(=O)[C@@]23C[C@](C)(C#N)[C@H](c4ccc5c(c4)OCO5)N2C(=O)[C@]1(C)SS3 (racemic) [ETP69, Rac-(3S,6S,7S,8aS)-6-(benzo[d][1,3]dioxol-5-yl)-2,3,7-trimethyl-1,4-dioxohexahydro-6H-3,8a-epidithiopyrrolo[1,2-a]pyrazine-7-carbonitrile]",remaining activity at 20 µM,DNMT1; [1],105%
same,remaining activity at 20 µM,DNMT1; [2],108%
same,Enzyme % Activity (relative to DMSO controls) Data 1,MLL1 Complex; [3],5.08%
same,Enzyme % Activity (relative to DMSO controls) Data 2,MLL1 Complex; [3],5.33%
same,inhibition relative to DMSO controls,MLL1 Complex; summary of Table 1,at least 7500
same,remaining activity at 20 µM,NRMT1; [1],90.5%
same,remaining activity at 20 µM,NRMT1; [2],94.6%
same,remaining activity at 20 µM,NSD2; [1],20%
same,remaining activity at 20 µM,NSD2; [2],19.9%
same,inhibition relative to DMSO controls,NSD2; summary of Table 1,at least 7500
same,remaining activity at 20 µM,SETDB1; [1],40.1%
same,remaining activity at 20 µM,SETDB1; [2],37.1%
same,inhibition relative to DMSO controls,SETDB1; summary of Table 1,at least 7500
